Measured values from ChEMBL document CHEMBL4393671, “Design of a Cyclin G Associated Kinase (GAK)/Epidermal Growth Factor Receptor (EGFR) Inhibitor Set to Interrogate the Relationship of EGFR and GAK in Chordoma” (J Med Chem, 2019).
Activity calls are given as the source filed them. No cut-off for these calls is given here.

How the values were obtained:
[1] = target: Epidermal growth factor receptor (Homo sapiens, UniProt P00533); assay: Inhibition of EGFR in human UCH1 cells assessed as reduction in EGF-induced EGFR phosphorylation at Y1068 residue at 10 uM preincubated for 4 hrs followed by EGF--stimulation and measured after 15 mins by Western blot analysis relative to control; assay type: cell-based
cells [2] = assay type: functional, cell-based; conditions: Homo sapiens, UCH2, 72 h
Description: Antiproliferative activity against human UCH2 cells measured after 72 hrs by alamar blue assay

cells [3] = assay type: functional, cell-based; conditions: Homo sapiens, 72 h
Description: Antiproliferative activity against human UCH7 cells measured after 72 hrs by alamar blue assay

[4] = target: T1, Serine/threonine-protein kinase Nek1 (Homo sapiens) (UniProt Q96PY6); assay: Binding affinity to NEK1 in human SUM159 cell lysates by multiplexed inhibitor bead profiling-based LC-MS/MS analysis; assay type: subcellular; conditions: Lysate
T1 sequence (whole entry): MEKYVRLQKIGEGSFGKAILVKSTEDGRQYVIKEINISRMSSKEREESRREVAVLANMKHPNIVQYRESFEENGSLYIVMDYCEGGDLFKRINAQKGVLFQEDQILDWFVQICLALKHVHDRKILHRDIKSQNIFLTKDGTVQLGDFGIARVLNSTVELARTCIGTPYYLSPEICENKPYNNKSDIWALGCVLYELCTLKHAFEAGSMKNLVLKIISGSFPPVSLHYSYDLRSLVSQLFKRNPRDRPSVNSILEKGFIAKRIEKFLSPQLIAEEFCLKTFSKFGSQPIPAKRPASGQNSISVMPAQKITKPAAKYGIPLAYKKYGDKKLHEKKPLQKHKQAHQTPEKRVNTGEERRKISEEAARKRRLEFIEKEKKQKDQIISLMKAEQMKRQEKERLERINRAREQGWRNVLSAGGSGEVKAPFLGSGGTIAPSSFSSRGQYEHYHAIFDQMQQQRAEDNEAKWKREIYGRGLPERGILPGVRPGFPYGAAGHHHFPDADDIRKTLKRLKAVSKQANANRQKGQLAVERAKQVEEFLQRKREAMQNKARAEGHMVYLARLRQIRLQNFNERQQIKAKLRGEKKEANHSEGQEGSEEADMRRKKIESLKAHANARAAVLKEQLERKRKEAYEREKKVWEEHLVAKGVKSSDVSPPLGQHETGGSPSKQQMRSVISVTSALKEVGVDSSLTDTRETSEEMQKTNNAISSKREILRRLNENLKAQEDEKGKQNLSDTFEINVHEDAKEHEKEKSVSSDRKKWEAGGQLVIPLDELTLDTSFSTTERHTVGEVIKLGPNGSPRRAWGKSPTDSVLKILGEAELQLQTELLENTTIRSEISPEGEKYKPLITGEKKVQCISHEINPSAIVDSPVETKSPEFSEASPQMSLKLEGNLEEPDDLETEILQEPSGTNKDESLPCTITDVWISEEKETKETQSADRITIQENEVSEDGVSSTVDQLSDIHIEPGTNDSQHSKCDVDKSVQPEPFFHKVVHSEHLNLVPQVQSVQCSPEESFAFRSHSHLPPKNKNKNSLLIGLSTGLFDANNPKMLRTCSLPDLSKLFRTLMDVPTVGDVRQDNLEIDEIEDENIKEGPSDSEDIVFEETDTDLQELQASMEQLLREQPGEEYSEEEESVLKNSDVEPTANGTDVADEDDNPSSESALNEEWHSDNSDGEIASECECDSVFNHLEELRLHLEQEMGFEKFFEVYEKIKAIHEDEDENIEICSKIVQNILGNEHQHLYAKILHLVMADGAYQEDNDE

Sequence of Epidermal growth factor receptor (P00533 whole entry): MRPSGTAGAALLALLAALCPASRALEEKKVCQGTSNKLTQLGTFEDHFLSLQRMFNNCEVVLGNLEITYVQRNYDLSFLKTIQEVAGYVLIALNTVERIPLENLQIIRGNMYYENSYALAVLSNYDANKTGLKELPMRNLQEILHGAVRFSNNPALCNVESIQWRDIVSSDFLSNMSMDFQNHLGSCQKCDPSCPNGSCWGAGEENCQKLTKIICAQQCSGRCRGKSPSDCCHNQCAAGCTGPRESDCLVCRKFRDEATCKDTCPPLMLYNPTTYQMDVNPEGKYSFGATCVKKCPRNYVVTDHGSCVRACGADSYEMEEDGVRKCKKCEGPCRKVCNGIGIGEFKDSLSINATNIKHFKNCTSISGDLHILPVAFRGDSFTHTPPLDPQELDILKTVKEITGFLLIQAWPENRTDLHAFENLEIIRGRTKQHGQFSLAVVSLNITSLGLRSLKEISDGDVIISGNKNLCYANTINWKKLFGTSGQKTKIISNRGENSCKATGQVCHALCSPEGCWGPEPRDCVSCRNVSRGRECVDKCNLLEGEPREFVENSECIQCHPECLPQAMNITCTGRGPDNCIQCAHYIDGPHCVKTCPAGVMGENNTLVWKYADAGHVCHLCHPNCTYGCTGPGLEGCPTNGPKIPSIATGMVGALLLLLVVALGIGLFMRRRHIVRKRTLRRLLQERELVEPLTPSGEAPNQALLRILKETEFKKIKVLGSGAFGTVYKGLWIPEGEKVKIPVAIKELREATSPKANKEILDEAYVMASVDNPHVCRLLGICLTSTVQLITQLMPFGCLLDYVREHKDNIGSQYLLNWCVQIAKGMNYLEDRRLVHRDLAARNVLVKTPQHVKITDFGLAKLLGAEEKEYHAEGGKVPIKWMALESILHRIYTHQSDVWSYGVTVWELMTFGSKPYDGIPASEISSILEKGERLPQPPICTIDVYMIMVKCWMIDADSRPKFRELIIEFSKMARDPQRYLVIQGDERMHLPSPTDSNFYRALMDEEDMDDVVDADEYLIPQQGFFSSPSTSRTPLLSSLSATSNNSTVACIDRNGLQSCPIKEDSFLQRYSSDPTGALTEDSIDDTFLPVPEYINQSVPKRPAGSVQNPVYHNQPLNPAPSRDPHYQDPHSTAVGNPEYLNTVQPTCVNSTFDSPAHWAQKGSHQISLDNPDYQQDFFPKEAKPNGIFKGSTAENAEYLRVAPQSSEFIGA

- inhibition [1]: 60.8%
- IC50 (cells [2]): > 50 µM
- IC50 (cells [3]): 20 µM
- Activity [4]: Active
Structure (SMILES): C#Cc1cccc(Nc2ccnc3cc(OC)c(OC)cc23)c1
